Calls of active or inactive are those of the source. No cut-off for these calls is given here. Peptide text beside a SMILES is read from it.
Key:
Assay type in all cases: cell membranes
Settings in all cases: Striatum
[1] = species on record: Bos taurus; assay: Enhancement of [3H]NPA binding to dopamine receptor in bovine striatal membrane at 10 nM
[2] = species on record: Bos taurus; assay: Enhancement of [3H]NPA binding to dopamine receptor in bovine striatal membrane at 100 nM
[3] = species on record: Bos taurus; assay: Enhancement of [3H]NPA binding to dopamine receptor in bovine striatal membrane at 1 uM

Activity [1]	Activity [2]	Activity [3]	SMILES
11.4%	–	–	NC(=O)[C@]12CCCN1C(=O)[C@@]1(CCCN1C(=O)[C@@H]1CCCN1)CC2
Active	19.5%	Active	CC(C)C[C@@]1(NC(=O)[C@@H]2CCCN2)CC[C@@]2(C(N)=O)CCCN2C1=O
–	34%	–	NC(=O)[C@@H]1CCCN1C(=O)[C@@H]1CCCN1C(=O)[C@@H]1CCCN1 (H-Pro-Pro-Pro-NH2)
–	38.2%	–	NC(=O)[C@H]1CS[C@@H]2CC[C@]3(CCCN3C(=O)[C@@H]3CCCN3)C(=O)N12

Reference: ChEMBL document CHEMBL1138350, “Allosteric modulation of the dopamine receptor by conformationally constrained type VI beta-turn peptidomimetics of Pro-Leu-Gly-NH2” (J Med Chem, 2007)
